ChEMBL document CHEMBL3600345, “Docking of competitive inhibitors to the P2X7 receptor family reveals key differences responsible for changes in response between rat and human” (Bioorg Med Chem Lett, 2015)

Key:
P2X purinoceptor 7 [1] = target: T1, P2X purinoceptor 7 (Homo sapiens, UniProt Q99572); experiment: Inhibition of human P2X7 receptor
T1 sequence (Q99572 whole entry): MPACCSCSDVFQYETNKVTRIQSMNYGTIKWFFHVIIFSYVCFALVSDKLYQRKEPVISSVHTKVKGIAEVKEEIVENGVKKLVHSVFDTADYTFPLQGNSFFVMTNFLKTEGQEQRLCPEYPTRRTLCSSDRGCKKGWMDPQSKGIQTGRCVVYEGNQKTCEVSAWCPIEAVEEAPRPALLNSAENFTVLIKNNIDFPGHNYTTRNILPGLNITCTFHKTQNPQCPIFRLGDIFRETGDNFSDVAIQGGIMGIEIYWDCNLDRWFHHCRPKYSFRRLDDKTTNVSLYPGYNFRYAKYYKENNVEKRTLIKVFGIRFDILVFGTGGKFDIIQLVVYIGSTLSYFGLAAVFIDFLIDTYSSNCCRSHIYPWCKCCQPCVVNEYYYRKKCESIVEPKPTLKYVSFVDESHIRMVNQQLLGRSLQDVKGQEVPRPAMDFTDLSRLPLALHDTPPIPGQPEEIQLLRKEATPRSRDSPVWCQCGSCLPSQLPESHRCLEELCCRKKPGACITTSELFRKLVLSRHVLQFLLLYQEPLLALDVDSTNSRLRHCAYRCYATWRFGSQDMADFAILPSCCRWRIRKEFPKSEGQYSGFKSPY

P2X purinoceptor 7 [2] = target: T2, P2X purinoceptor 7 (Rattus norvegicus, UniProt Q64663); experiment: Inhibition of rat P2X7 receptor
T2 sequence (Q64663 whole entry): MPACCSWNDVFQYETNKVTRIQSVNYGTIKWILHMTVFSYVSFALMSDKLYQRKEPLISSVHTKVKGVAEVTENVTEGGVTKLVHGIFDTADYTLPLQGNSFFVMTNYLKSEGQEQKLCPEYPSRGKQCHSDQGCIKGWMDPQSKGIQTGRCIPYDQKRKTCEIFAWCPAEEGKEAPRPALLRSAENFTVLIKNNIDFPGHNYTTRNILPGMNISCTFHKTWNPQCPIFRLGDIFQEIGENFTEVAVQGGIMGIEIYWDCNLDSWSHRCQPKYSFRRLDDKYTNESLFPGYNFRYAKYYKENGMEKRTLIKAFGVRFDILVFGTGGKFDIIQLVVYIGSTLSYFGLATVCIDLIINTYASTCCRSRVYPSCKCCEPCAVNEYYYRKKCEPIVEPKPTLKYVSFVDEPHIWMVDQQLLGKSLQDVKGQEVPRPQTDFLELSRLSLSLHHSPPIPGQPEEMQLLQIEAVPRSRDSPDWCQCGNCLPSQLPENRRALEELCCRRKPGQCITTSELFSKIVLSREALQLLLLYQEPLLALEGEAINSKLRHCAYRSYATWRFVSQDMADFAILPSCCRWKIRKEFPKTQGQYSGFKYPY

P2X7 purinoceptor = target: T3, P2X7 purinoceptor (Canis lupus familiaris, UniProt Q64F92); experiment: Inhibition of dog P2X7 receptor
T3 sequence (Q64F92 whole entry): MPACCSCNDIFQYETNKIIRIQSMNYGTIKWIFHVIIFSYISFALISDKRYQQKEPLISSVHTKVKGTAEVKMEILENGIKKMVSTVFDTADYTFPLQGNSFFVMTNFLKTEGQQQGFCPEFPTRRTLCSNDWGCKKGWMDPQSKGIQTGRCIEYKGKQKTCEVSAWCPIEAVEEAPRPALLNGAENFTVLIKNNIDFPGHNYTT

P2X purinoceptor = target: T4, P2X purinoceptor (Cavia porcellus, UniProt A9QW74); experiment: Inhibition of guinea pig P2X7 receptor
T4 sequence (A9QW74 whole entry): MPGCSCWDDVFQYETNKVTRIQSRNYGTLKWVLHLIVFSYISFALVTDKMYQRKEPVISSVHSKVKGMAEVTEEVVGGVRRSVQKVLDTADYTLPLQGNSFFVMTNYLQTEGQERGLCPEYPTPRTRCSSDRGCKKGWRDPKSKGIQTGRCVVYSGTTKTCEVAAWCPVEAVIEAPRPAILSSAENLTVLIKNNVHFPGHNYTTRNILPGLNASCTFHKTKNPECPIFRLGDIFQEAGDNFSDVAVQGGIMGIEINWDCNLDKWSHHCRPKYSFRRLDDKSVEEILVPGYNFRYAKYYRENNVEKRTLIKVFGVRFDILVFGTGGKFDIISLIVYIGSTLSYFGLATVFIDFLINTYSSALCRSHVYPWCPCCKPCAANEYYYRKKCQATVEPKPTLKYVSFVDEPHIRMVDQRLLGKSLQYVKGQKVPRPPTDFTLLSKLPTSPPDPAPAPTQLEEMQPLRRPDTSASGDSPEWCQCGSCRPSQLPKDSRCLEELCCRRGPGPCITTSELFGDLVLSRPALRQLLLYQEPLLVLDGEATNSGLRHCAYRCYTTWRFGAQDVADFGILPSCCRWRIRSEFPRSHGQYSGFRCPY

[3] = Inhibition of rhesus macaque P2X7 receptor; set-up: species or system Macaca mulatta

Row | IC50 (P2X purinoceptor 7 [1]) | IC50 (P2X purinoceptor 7 [2]) | IC50 (P2X7 purinoceptor) | IC50 (P2X purinoceptor) | IC50 [3] | Structure (SMILES)
1 | 100 nM | > 100000 nM | 10 nM | 130 nM | 86 nM | CN([C@@H](Cc1ccc(OS(=O)(=O)c2cccc3cnccc23)cc1)C(=O)N1CCN(c2ccccc2)CC1)S(=O)(=O)c1cccc2cnccc12
2 | 31 nM | > 100000 nM | – | – | 23 nM | O=C1CSC(=O)N1C(CCc1ccncc1)COc1ccc(-c2cccc([N+](=O)[O-])c2)cc1 (stereo not given)

Row | Structure (SMILES) | IC50 (P2X purinoceptor 7 [1]) | IC50 (P2X purinoceptor 7 [2]) | IC50 (P2X7 purinoceptor) | IC50 (P2X purinoceptor) | IC50 [3]
3 | C[S+]([O-])c1ccc(-c2nc(-c3ccncc3)c(-c3ccc(F)cc3)[nH]2)cc1 (stereo not given) [SB-203580] | 5000 nM | > 30000 nM | – | – | –
